Data published in the supplement of paper PMC4862054.

Tested on: HCC1143
Assay: normalised viability (% of control), CellTiter-Blue; higher = more viable cells (about 100 = DMSO control)
Conditions: 1000 nM; incubation time: 72 h
Outline: (§1)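 Plates were quality-checked by Z'-factor and normalised to vehicle (100) and a positive kill control (0). The underlying assay incubated breast cancer cell lines for 72 h on 384-well plates with compound, then added 2.5 µl CellTiter-Blue for 2 h at 37 °C and read at 560/590 nm. The value is normalised viability at a single listed concentration of the series.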

Q: `COc1cc2/c(=N/c3ccc(Br)cc3F)nc[nH]c2cc1OCC1CCN(C)CC1` [Vandetanib] was tested. Which normalised viability did it give?
A: The normalised viability was 99.7%.

Q: Which normalised viability does the source give for `COCC[n+]1c2c(n(Cc3cnccn3)c1C)C(=O)c1ccccc1C2=O` [YM155] here?
A: The normalised viability was 3.34%.

Same assay, conditions: 10000 nM; incubation time: 72 h

Q: How did the normalised viability turn out when `CC(C)C[C@@H](C(=O)N[C@H](C(=O)OC1CCCC1)c1ccccc1)[C@H](O)C(=O)NO` [Tosedostat] was run?
A: Its normalised viability is 61.1%.

Q: `COc1cc2/c(=N/c3ccc(Br)cc3F)nc[nH]c2cc1OCC1CCN(C)CC1` [Vandetanib] was tested. Which normalised viability did it give?
A: The normalised viability was 68.5%.

Q: How did the normalised viability turn out when `COCC[n+]1c2c(n(Cc3cnccn3)c1C)C(=O)c1ccccc1C2=O` [YM155] was run?
A: The normalised viability was 2.44%.

Tested on: MDA-MB-436
Assay: as above
Conditions: 10 nM; incubation time: 72 h
Outline: as §1

Q: How did the normalised viability turn out when `CC(C)C[C@@H](C(=O)N[C@H](C(=O)OC1CCCC1)c1ccccc1)[C@H](O)C(=O)NO` [Tosedostat] was run?
A: The normalised viability was 92.4%.

Q: With `COc1cc2/c(=N/c3ccc(Br)cc3F)nc[nH]c2cc1OCC1CCN(C)CC1` [Vandetanib] as the molecule, how does the normalised viability read?
A: Its normalised viability is 76.4%.

Q: For `COCC[n+]1c2c(n(Cc3cnccn3)c1C)C(=O)c1ccccc1C2=O` [YM155], which normalised viability is on record?
A: Its normalised viability is 34.5%.

Same assay, conditions: 1000 nM; incubation time: 72 h

Q: With `CC(C)C[C@@H](C(=O)N[C@H](C(=O)OC1CCCC1)c1ccccc1)[C@H](O)C(=O)NO` [Tosedostat] as the molecule, how does the normalised viability read?
A: The normalised viability was 73.1%.

Q: Which normalised viability does the source give for `COc1cc2/c(=N/c3ccc(Br)cc3F)nc[nH]c2cc1OCC1CCN(C)CC1` [Vandetanib] here?
A: Its normalised viability is 35.7%.

Q: `COCC[n+]1c2c(n(Cc3cnccn3)c1C)C(=O)c1ccccc1C2=O` [YM155] was tested. Which normalised viability did it give?
A: Its normalised viability is 0.04%.

Same assay, conditions: 10000 nM; incubation time: 72 h

Q: For `CC(C)C[C@@H](C(=O)N[C@H](C(=O)OC1CCCC1)c1ccccc1)[C@H](O)C(=O)NO` [Tosedostat], which normalised viability is on record?
A: Its normalised viability is 75.3%.

Q: `COc1cc2/c(=N/c3ccc(Br)cc3F)nc[nH]c2cc1OCC1CCN(C)CC1` [Vandetanib] was tested. Which normalised viability did it give?
A: Its normalised viability is 30.1%.

Q: `COCC[n+]1c2c(n(Cc3cnccn3)c1C)C(=O)c1ccccc1C2=O` [YM155] was tested. Which normalised viability did it give?
A: The normalised viability was 0.01%.

Tested on: CAL-120
Assay: as above
Conditions: 10 nM; incubation time: 72 h
Outline: as §1

Q: `CC(C)C[C@@H](C(=O)N[C@H](C(=O)OC1CCCC1)c1ccccc1)[C@H](O)C(=O)NO` [Tosedostat] was tested. Which normalised viability did it give?
A: Its normalised viability is 82.4%.

Q: Which normalised viability does the source give for `COc1cc2/c(=N/c3ccc(Br)cc3F)nc[nH]c2cc1OCC1CCN(C)CC1` [Vandetanib] here?
A: Its normalised viability is 117%.

Q: `COCC[n+]1c2c(n(Cc3cnccn3)c1C)C(=O)c1ccccc1C2=O` [YM155] was tested. Which normalised viability did it give?
A: The normalised viability was 9.27%.

Same assay, conditions: 1000 nM; incubation time: 72 h

Q: `CC(C)C[C@@H](C(=O)N[C@H](C(=O)OC1CCCC1)c1ccccc1)[C@H](O)C(=O)NO` [Tosedostat] was tested. Which normalised viability did it give?
A: Its normalised viability is 65.4%.

Q: How did the normalised viability turn out when `COc1cc2/c(=N/c3ccc(Br)cc3F)nc[nH]c2cc1OCC1CCN(C)CC1` [Vandetanib] was run?
A: Its normalised viability is 98.2%.

Q: Which normalised viability does the source give for `COCC[n+]1c2c(n(Cc3cnccn3)c1C)C(=O)c1ccccc1C2=O` [YM155] here?
A: The normalised viability was 2.84%.

Same assay, conditions: 10000 nM; incubation time: 72 h

Q: How did the normalised viability turn out when `CC(C)C[C@@H](C(=O)N[C@H](C(=O)OC1CCCC1)c1ccccc1)[C@H](O)C(=O)NO` [Tosedostat] was run?
A: The normalised viability was 55%.

Q: Which normalised viability does the source give for `COc1cc2/c(=N/c3ccc(Br)cc3F)nc[nH]c2cc1OCC1CCN(C)CC1` [Vandetanib] here?
A: The normalised viability was 17.6%.

Q: For `COCC[n+]1c2c(n(Cc3cnccn3)c1C)C(=O)c1ccccc1C2=O` [YM155], which normalised viability is on record?
A: Its normalised viability is 3.14%.

Tested on: MDA-MB-468
Assay: as above
Conditions: 10 nM; incubation time: 72 h
Outline: as §1

Q: `CC(C)C[C@@H](C(=O)N[C@H](C(=O)OC1CCCC1)c1ccccc1)[C@H](O)C(=O)NO` [Tosedostat] was tested. Which normalised viability did it give?
A: The normalised viability was 91.5%.

Q: How did the normalised viability turn out when `COc1cc2/c(=N/c3ccc(Br)cc3F)nc[nH]c2cc1OCC1CCN(C)CC1` [Vandetanib] was run?
A: Its normalised viability is 89.8%.

Q: For `COCC[n+]1c2c(n(Cc3cnccn3)c1C)C(=O)c1ccccc1C2=O` [YM155], which normalised viability is on record?
A: The normalised viability was 12.8%.

Same assay, conditions: 1000 nM; incubation time: 72 h

Q: `CC(C)C[C@@H](C(=O)N[C@H](C(=O)OC1CCCC1)c1ccccc1)[C@H](O)C(=O)NO` [Tosedostat] was tested. Which normalised viability did it give?
A: Its normalised viability is 55.5%.

Q: With `COc1cc2/c(=N/c3ccc(Br)cc3F)nc[nH]c2cc1OCC1CCN(C)CC1` [Vandetanib] as the molecule, how does the normalised viability read?
A: Its normalised viability is 74.3%.

Q: How did the normalised viability turn out when `COCC[n+]1c2c(n(Cc3cnccn3)c1C)C(=O)c1ccccc1C2=O` [YM155] was run?
A: The normalised viability was 0.21%.

Same assay, conditions: 10000 nM; incubation time: 72 h

Q: `CC(C)C[C@@H](C(=O)N[C@H](C(=O)OC1CCCC1)c1ccccc1)[C@H](O)C(=O)NO` [Tosedostat] was tested. Which normalised viability did it give?
A: The normalised viability was 54.2%.

Q: With `COc1cc2/c(=N/c3ccc(Br)cc3F)nc[nH]c2cc1OCC1CCN(C)CC1` [Vandetanib] as the molecule, how does the normalised viability read?
A: Its normalised viability is 28%.

Q: For `COCC[n+]1c2c(n(Cc3cnccn3)c1C)C(=O)c1ccccc1C2=O` [YM155], which normalised viability is on record?
A: Its normalised viability is 0.26%.

Tested on: Hs578T
Assay: as above
Conditions: 10 nM; incubation time: 72 h
Outline: as §1

Q: How did the normalised viability turn out when `CC(C)C[C@@H](C(=O)N[C@H](C(=O)OC1CCCC1)c1ccccc1)[C@H](O)C(=O)NO` [Tosedostat] was run?
A: Its normalised viability is 96.9%.

Q: How did the normalised viability turn out when `COc1cc2/c(=N/c3ccc(Br)cc3F)nc[nH]c2cc1OCC1CCN(C)CC1` [Vandetanib] was run?
A: The normalised viability was 108%.

Q: With `COCC[n+]1c2c(n(Cc3cnccn3)c1C)C(=O)c1ccccc1C2=O` [YM155] as the molecule, how does the normalised viability read?
A: The normalised viability was 84.8%.

Same assay, conditions: 1000 nM; incubation time: 72 h

Q: For `CC(C)C[C@@H](C(=O)N[C@H](C(=O)OC1CCCC1)c1ccccc1)[C@H](O)C(=O)NO` [Tosedostat], which normalised viability is on record?
A: Its normalised viability is 86%.

Q: For `COc1cc2/c(=N/c3ccc(Br)cc3F)nc[nH]c2cc1OCC1CCN(C)CC1` [Vandetanib], which normalised viability is on record?
A: The normalised viability was 92.8%.

Q: For `COCC[n+]1c2c(n(Cc3cnccn3)c1C)C(=O)c1ccccc1C2=O` [YM155], which normalised viability is on record?
A: The normalised viability was 19.6%.

Same assay, conditions: 10000 nM; incubation time: 72 h

Q: `CC(C)C[C@@H](C(=O)N[C@H](C(=O)OC1CCCC1)c1ccccc1)[C@H](O)C(=O)NO` [Tosedostat] was tested. Which normalised viability did it give?
A: The normalised viability was 70%.

Q: Which normalised viability does the source give for `COc1cc2/c(=N/c3ccc(Br)cc3F)nc[nH]c2cc1OCC1CCN(C)CC1` [Vandetanib] here?
A: The normalised viability was 50%.

Q: For `COCC[n+]1c2c(n(Cc3cnccn3)c1C)C(=O)c1ccccc1C2=O` [YM155], which normalised viability is on record?
A: Its normalised viability is -0.04%.
